Source: PubChem BioAssay AID1963867 (Molecular Pharmacology Branch, DTP, NCI, 2024)

System: KRAS-mutant PDC tumor spheroid with HUVEC/MSC, viability
Assay: Anticancer human tumor 327498-153-R-J2-PDC patient-derived uterine carcinosarcoma cell line growth inhibition [KRAS2]
Conditions: for IC50: curve of first compound; for viability, T/C: stronger effect = lower value
Summary of the method: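 KRAS-mutant tumor cells were grown as spheroids with HUVEC endothelial cells and human MSCs as stroma. Targeted agents were tested alone and with KRAS pathway inhibitors. Doses started at or near clinical Cmax, or 10 microM, descending half-log.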

[1] = second compound 0.1 µM, first compound 0.0316 µM
[2] = second compound 0.1 µM, first compound 0.1 µM
[3] = second compound 0.1 µM, first compound 0.316 µM
[4] = second compound 0.1 µM, first compound 1 µM
[5] = second compound 0.1 µM, first compound 3.16 µM
[6] = second compound 0.1 µM, first compound 10 µM
[7] = second compound 0.316 µM, first compound 0.0316 µM
[8] = second compound 0.316 µM, first compound 0.1 µM
[9] = second compound 0.316 µM, first compound 0.316 µM
[10] = second compound 0.316 µM, first compound 1 µM
[11] = second compound 0.316 µM, first compound 3.16 µM
[12] = second compound 0.316 µM, first compound 10 µM
[13] = second compound 1 µM, first compound 0.0316 µM
[14] = second compound 1 µM, first compound 0.1 µM
[15] = second compound 1 µM, first compound 0.316 µM
[16] = second compound 1 µM, first compound 1 µM
[17] = second compound 1 µM, first compound 3.16 µM
[18] = second compound 1 µM, first compound 10 µM
[19] = second compound 3.16 µM, first compound 0.0316 µM
[20] = second compound 3.16 µM, first compound 0.1 µM
[21] = second compound 3.16 µM, first compound 0.316 µM
[22] = second compound 3.16 µM, first compound 1 µM
[23] = second compound 3.16 µM, first compound 3.16 µM
[24] = second compound 3.16 µM, first compound 10 µM
[25] = second compound 10 µM, first compound 0.0316 µM
[26] = second compound 10 µM, first compound 0.1 µM
[27] = second compound 10 µM, first compound 0.316 µM
[28] = second compound 10 µM, first compound 1 µM
[29] = second compound 10 µM, first compound 3.16 µM
[30] = second compound 10 µM, first compound 10 µM
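Further: spheroids exposed to agents for seven days before reading.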
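Wherever viability, T/C is given: 100% = DMSO vehicle wells so lower means fewer viable cells.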

| Structure (SMILES) | IC50 (second compound 0.1 µM) | IC50 (second compound 0.316 µM) | IC50 (second compound 1 µM) | IC50 (second compound 3.16 µM) | IC50 (second compound 10 µM) | viability, T/C [1] | viability, T/C [2] | viability, T/C [3] | viability, T/C [4] | viability, T/C [5] | viability, T/C [6] | viability, T/C [7] | viability, T/C [8] | viability, T/C [9] | viability, T/C [10] | viability, T/C [11] | viability, T/C [12] | viability, T/C [13] | viability, T/C [14] | viability, T/C [15] | also measured |
| --- | --- | --- | --- | --- | --- | --- | --- | --- | --- | --- | --- | --- | --- | --- | --- | --- | --- | --- | --- | --- | --- |
| COc1cc(Nc2ncc3c(n2)-c2ccc(Cl)cc2C(c2c(F)cccc2OC)=NC3)ccc1C(=O)O + COc1cc2nc(C)nc(NC(C)c3cc(N)cc(C(F)(F)F)c3)c2cc1OC1CCOC1 | < 31.6 nM | < 31.6 nM | < 31.6 nM | < 31.6 nM | < 31.6 nM | 17.7% | 12.6% | 9.32% | 9.41% | 13.8% | 12.8% | 16.1% | 11.8% | 12.2% | 9.86% | 12.5% | 12.2% | 13.3% | 10.3% | 13.1% | viability, T/C [16]: 10.5%; viability, T/C [17]: 11.7%; viability, T/C [18]: 11.5%; viability, T/C [19]: 13.1%; viability, T/C [20]: 10.9%; viability, T/C [21]: 9.78%; viability, T/C [22]: 9.93%; viability, T/C [23]: 10.5%; viability, T/C [24]: 10.5%; viability, T/C [25]: 8.09%; viability, T/C [26]: 8.45%; viability, T/C [27]: 5.81%; viability, T/C [28]: 4.52%; viability, T/C [29]: 8.87%; viability, T/C [30]: 4.93% |
| COc1cc2nccc(Oc3ccc(NC(=O)C4(C(=O)Nc5ccc(F)cc5)CC4)cc3)c2cc1OC + COc1cc2nc(C)nc(NC(C)c3cc(N)cc(C(F)(F)F)c3)c2cc1OC1CCOC1 | 689 nM | 534 nM | 379 nM | 385 nM | < 31.6 nM | 73.8% | 82.3% | 74.6% | 26.7% | 0.88% | 87% | 68.3% | 60.8% | 64.5% | 28.7% | 0.85% | 68.5% | 62.9% | 54% | 53.9% | viability, T/C [16]: 22.9%; viability, T/C [17]: 0.96%; viability, T/C [18]: 63.1%; viability, T/C [19]: 62.5%; viability, T/C [20]: 57.3%; viability, T/C [21]: 54.2%; viability, T/C [22]: 22.1%; viability, T/C [23]: 0.52%; viability, T/C [24]: 67.3%; viability, T/C [25]: 50.6%; viability, T/C [26]: 44.8%; viability, T/C [27]: 40.5%; viability, T/C [28]: 12.1%; viability, T/C [29]: 0.37%; viability, T/C [30]: 57.9% |
